Measurements taken from publication PMC3943356 (Bioorganic & medicinal chemistry letters, 2013).
Counter-ions that a name gives are not always drawn. Like-named read-outs stand apart in the source and are kept apart here.

Assays:
VGLUT [1] = assay: Inhibition of 3H-L-Glu uptake into synaptic vesicles prepared from rat brain; conditions: for reduction (block) of L-Glu uptake: compound at 250 µM, 3H-L-Glu 250 µM
VGLUT [2] = biological target: VGLUT
KA receptors = conditions: cited from earlier work
AMPA receptors = conditions: cited from earlier work
NMDA receptor = conditions: cited from earlier work
VGLUT [3] = conditions: read-out: Ki at VGLUT; cited from earlier work

CC(=O)[C@H]1CC[C@H]2[C@@H]3CC=C4C[C@@H](O)CC[C@]4(C)[C@H]3CC[C@]12C [Pregnenolone]
reduction (block) of L-Glu uptake (VGLUT [1]): did not block L-Glu uptake to any appreciable level

O=C(O)c1cc(C(=O)O)c2c(ccc3cc4ccccc4cc32)n1 [5,6-NQDC, Naphtho[2,3-f]quinoline-1,3-dicarboxylic acid]
reduction (block) of L-Glu uptake (VGLUT [1]): over 80% | Ki (VGLUT [2]): ~60 µM

CC(=O)[C@H]1CC[C@H]2[C@@H]3CC[C@@H]4C[C@@H](OS(=O)(=O)O)CC[C@]4(C)[C@H]3CC[C@]12C [Pregnanolone sulfate]
effect on KA receptors (KA receptors): inhibits | activity relative to the endogenous substrate L-Glu (VGLUT [1]): approximately 100 fold | mechanism of inhibition (VGLUT [1]; Lineweaver-Burk plot, increase in Km,app, no change in Vmax): competitive inhibition | reduction (block) of L-Glu uptake (VGLUT [1]): 85% | effect on AMPA receptors (AMPA receptors): inhibits | effect on NMDA receptor (NMDA receptor): inhibits

O=C(O)c1cc(C(=O)O)c2ccc3cc4ccccc4cc3c2n1 [7,8-NQDC, Naphtho[2,3-h]quinoline-2,4-dicarboxylic acid]
reduction (block) of L-Glu uptake (VGLUT [1]): similarly effective | Ki (VGLUT [2]): ~60 µM

C[C@]12CC[C@@H]3c4ccc(O)cc4CC[C@H]3[C@@H]1CCC2=O [Estrone]
reduction (block) of L-Glu uptake (VGLUT [1]): did not block L-Glu uptake to any appreciable level

Pregnenolone sulfate
reduction (block) of L-Glu uptake (VGLUT [1]): 70% | effect on NMDA receptor (NMDA receptor): potentiate

C[C@]12CC[C@@H]3c4ccc(OC(=O)CCC(=O)O)cc4CC[C@H]3[C@@H]1CCC2=O [Estrone hemisuccinate]
reduction (block) of L-Glu uptake (VGLUT [1]): inactive

N[C@@H](CCC(=O)O)C(=O)O [L-Glu, Glutamate]
Km (VGLUT [1]; read-out: Km of L-Glu uptake, Lineweaver-Burk plot, Fig. 3): 2500 µM

CC(C)CC1C(=O)N2CCCC2C2(O)OC(NC(=O)C3C=C4c5cccc6[nH]c(Br)c(c56)CC4N(C)C3)(C(C)C)C(=O)N12 (centres unmarked) [bromocryptine]
Ki (VGLUT [3]): ~22 µM
